Measurements: patent US20160158200A1, “Combinations of Hepatitis C Virus Inhibitors” (priority 2013, published 2016)

System: HCV genotype-1a variant with glutamine 30 changed to glutamate in the NS5A protein
Format: cell-based
Conditions: test compound titrated with BMS-790052 fixed at 200 nM; genotype 1a Q30E replicon
Method in brief: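 Synergy was assessed by combining several fixed amounts of an NS5A-targeting compound with a titration of the second compound of interest.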

| Structure (SMILES) | Fold-Synergistic 1a (Q30E) |
| --- | --- |
| CC(C)(C)C(=O)N[C@H](c1nc(-c2ccc(-c3ccc(-c4c[nH]c([C@@H](NC(=O)C(C)(C)C)C(C)(C)CO)n4)cc3)cc2)c[nH]1)C(C)(C)CO [Compound N-110] | >100 fold |
| CC(C)[C@H](N[S+]([O-])C(C)(C)C)c1ncc(-c2ccc(-c3ccc(-c4cnc([C@@H](N[S+]([O-])C(C)(C)C)C(C)C)[nH]4)cc3)cc2)[nH]1 (single isomer, unassigned) [Compound Y-59] | >100 fold |
| CC(C)(C)[C@H](NC(=O)C1CCC(F)(F)CC1)c1ncc(-c2ccc3cc(-c4ccc5nc([C@@H](NC(=O)C6CCC(F)(F)CC6)C(C)(C)C)[nH]c5c4)ccc3c2)[nH]1 [Compound B53] | >100 fold |
| CC(CO)(CO)C(=O)N[C@H](c1nc(-c2ccc(-c3ccc(-c4c[nH]c([C@@H](NC(=O)C(C)(CO)CO)C(C)(C)C)n4)cc3)cc2)c[nH]1)C(C)(C)C [Compound W-125] | >100 fold |
| COc1ccccc1C(O)C(C)(C)C(=O)N[C@H](c1nc(-c2ccc(-c3ccc(-c4c[nH]c([C@@H](NC(=O)C(C)(C)C(O)c5ccccc5OC)C(C)(C)C)n4)cc3)cc2)c[nH]1)C(C)(C)C (single isomer, unassigned) [Compound N-125A] | >100 fold |
| CC(C)(C)[C@H](NC(=O)C1CCC2(CC1)CC2)c1nc(-c2ccc(-c3ccc(-c4c[nH]c([C@@H](NC(=O)C5CCC6(CC5)CC6)C(C)(C)C)n4)cc3)cc2)c[nH]1 (stereo partly shown) [Compound N-123] | >100 fold |
| CC(C)(C)[C@H](NC(=O)C1CCC(C(F)F)CC1)c1nc(-c2ccc(-c3ccc(-c4c[nH]c([C@@H](NC(=O)C5CCC(C(F)F)CC5)C(C)(C)C)n4)cc3)cc2)c[nH]1 (stereo partly shown) [Compound Y-71] | >100 fold |
| CC(C)(C)[C@H](NC(=O)C(=O)N1CCC(F)CC1)c1nc(-c2ccc(-c3ccc(-c4c[nH]c([C@@H](NC(=O)C(=O)N5CCC(F)CC5)C(C)(C)C)n4)cc3)cc2)c[nH]1 [Compound W-26] | >100 fold |
| CC[C@H](C(=O)N[C@H](c1ncc(-c2ccc(-c3ccc(-c4cnc([C@@H](NC(=O)[C@@H](CC)c5ccccc5)C(C)C)[nH]4)cc3)cc2)[nH]1)C(C)C)c1ccccc1 [Compound P-61] | >100 fold |
| CC(C)(C)C(=O)N1CCC(C)(C)C1c1nc(-c2ccc(-c3ccc(-c4c[nH]c(C5N(C(=O)C(C)(C)C)CCC5(C)C)n4)cc3)cc2)c[nH]1 (stereo not shown) [Compound W-219] | >10 fold |
| Cc1ccccc1C(=O)N[C@H](c1ncc(-c2ccc(-c3ccc(-c4cnc([C@@H](NC(=O)c5ccccc5C)C(C)C)[nH]4)cc3)cc2)[nH]1)C(C)C [Compound S-70] | >100 fold |
| CC(C)C(C)(C)C(=O)N[C@H](c1ncc(-c2ccc(-c3ccc(-c4cnc([C@@H](NC(=O)C(C)(C)C(C)C)C(C)(C)C)[nH]4)cc3)cc2)[nH]1)C(C)(C)C [Compound B88] | >100 fold |
| CC(C)(C)[C@H](NC(=O)C1(C(O)c2ccccc2)CC1)c1nc(-c2ccc(-c3ccc(-c4c[nH]c([C@@H](NC(=O)C5(C(O)c6ccccc6)CC5)C(C)(C)C)n4)cc3)cc2)c[nH]1 (single isomer, unassigned) [Compound N-126A] | >100 fold |
| CC(C)(C)C(NC(=O)C1CCCO1)c1nc(-c2ccc(-c3ccc(-c4c[nH]c(C(NC(=O)C5CCCO5)C(C)(C)C)n4)cc3)cc2)c[nH]1 [Compound L-64] | >100 fold |
| CC(C)[C@H](NC(=O)[C@H]1Cc2ccccc21)c1ncc(-c2ccc(-c3ccc(-c4cnc([C@@H](NC(=O)[C@H]5Cc6ccccc65)C(C)C)[nH]4)cc3)cc2)[nH]1 [Compound P-109] | >100 fold |
| CCNC(=O)NC1(C(=O)N[C@H](c2nc(-c3ccc(-c4ccc(-c5c[nH]c([C@@H](NC(=O)C6(NC(=O)NCC)CCCCC6)C(C)(C)C)n5)cc4)cc3)c[nH]2)C(C)(C)C)CCCCC1 [Compound W-251] | >100 fold |
| CN(C(=O)OC(C)(C)C)C1(C(=O)N[C@H](c2nc(-c3ccc(-c4ccc(-c5c[nH]c([C@@H](NC(=O)C6(N(C)C(=O)OC(C)(C)C)CCC6)C(C)(C)C)n5)cc4)cc3)c[nH]2)C(C)(C)C)CCC1.O=C(O)C(F)(F)F.O=C(O)C(F)(F)F [Compound L-14] | >100 fold |
| CC1([C@H](NC(=O)C2(C(C)(C)O)CC2)c2ncc(-c3ccc(-c4ccc(-c5cnc([C@@H](NC(=O)C6(C(C)(C)O)CC6)C6(C)CC6)[nH]5)cc4)cc3)[nH]2)CC1 [Compound B149] | >100 fold |
| COC(c1ccccc1)C1(C(=O)N[C@H](c2nc(-c3ccc(-c4ccc(-c5c[nH]c([C@@H](NC(=O)C6(C(OC)c7ccccc7)CC6)C(C)(C)C)n5)cc4)cc3)c[nH]2)C(C)(C)C)CC1 (stereo partly shown) [Example N-137] | <10 fold |

| Structure (SMILES) | Fold-Synergistic 1a (Q30E) |
| --- | --- |
| CC(O)C1(C(=O)N[C@H](c2ncc(-c3ccc(-c4ccc(-c5cnc([C@@H](NC(=O)C6(C(C)O)CC6)C(C)(C)C)[nH]5)cc4)cc3)[nH]2)C(C)(C)C)CC1 (single isomer, unassigned) [Compound B73] | >100 fold |
| CC(C)[C@H](NC(=O)Cc1cnccn1)c1ncc(-c2ccc(-c3ccc(-c4cnc([C@@H](NC(=O)Cc5cnccn5)C(C)C)[nH]4)cc3)cc2)[nH]1 [Compound S-60] | <10 fold |
| CC1CN(C(=O)C(=O)N[C@H](c2nc(-c3ccc(-c4ccc(-c5c[nH]c([C@@H](NC(=O)C(=O)N6CC(C)OC(C)C6)C(C)(C)C)n5)cc4)cc3)c[nH]2)C(C)(C)C)CC(C)O1 (single isomer, unassigned) [Compound W-40A] | >100 fold |
| CC(C)[C@H](NC(=O)C(C)(C)C)c1ncc(-c2ccc(-c3ccc(-c4cnc([C@@H](NC(=O)C(C)(C)C)C(C)C)n4C)cc3)cc2)n1C [Compound B-205] | <10 fold |
| CC(C)[C@H](NC(=O)OCc1ccccc1)c1ncc(-c2ccc(-c3ccc(-c4cnc([C@@H](NC(=O)OCc5ccccc5)C(C)C)[nH]4)cc3)cc2)[nH]1 [Compound S-215] | >100 fold |
| C[C@@H]1CN(C(=O)C(=O)N[C@H](c2nc(-c3ccc(-c4ccc(-c5c[nH]c([C@@H](NC(=O)C(=O)N6C[C@@H](C)O[C@@H](C)C6)C(C)(C)C)n5)cc4)cc3)c[nH]2)C(C)(C)C)C[C@H](C)O1 [Compound W-45] | >100 fold |
| CC1(C)CCN(C(=O)c2cccc3ccccc23)C1c1nc(-c2ccc(-c3ccc(-c4c[nH]c(C5N(C(=O)c6cccc7ccccc67)CCC5(C)C)n4)cc3)cc2)c[nH]1 (stereo not shown) [Compound W-225] | <10 fold |
| CC(C)(C)[C@H](NC(=O)C12CCC(CC1)N2)c1nc(-c2ccc(-c3ccc(-c4c[nH]c([C@@H](NC(=O)C56CCC(CC5)N6)C(C)(C)C)n4)cc3)cc2)c[nH]1.Cl.Cl.Cl.Cl [Compound W-92] | >10 fold |
| CC(C)(C)[C@H](NC(=O)Cc1noc2ccccc12)c1nc(-c2ccc(-c3ccc(-c4c[nH]c([C@@H](NC(=O)Cc5noc6ccccc56)C(C)(C)C)n4)cc3)cc2)c[nH]1 [Compound P-16] | >100 fold |
| CC(C)(C)OC(=O)N1CC(F)(F)CC1(C)C(=O)N[C@H](c1nc(-c2ccc(-c3ccc(-c4c[nH]c([C@@H](NC(=O)C5(C)CC(F)(F)CN5C(=O)OC(C)(C)C)C(C)(C)C)n4)cc3)cc2)c[nH]1)C(C)(C)C (single isomer, unassigned) [Compound W-77] | >100 fold |
| CC(C)(C)OC(=O)NC1(C(=O)N[C@H](c2nc(-c3ccc(-c4ccc(-c5c[nH]c([C@@H](NC(=O)C6(NC(=O)OC(C)(C)C)CCCCC6)C(C)(C)C)n5)cc4)cc3)c[nH]2)C(C)(C)C)CCCCC1.O=C(O)C(F)(F)F.O=C(O)C(F)(F)F [Compound L-7] | >100 fold |
| CC(C)(C(=O)N[C@H](c1nc(-c2ccc(-c3ccc(-c4c[nH]c([C@@H](NC(=O)C(C)(C)C(O)C5CC(F)(F)C5)C(C)(C)C)n4)cc3)cc2)c[nH]1)C(C)(C)C)C(O)C1CC(F)(F)C1 (single isomer, unassigned) [Compound N-144C] | >100 fold |
| COc1ccccc1C(=O)N[C@H](c1ncc(-c2ccc(-c3ccc(-c4cnc([C@@H](NC(=O)c5ccccc5OC)C(C)C)[nH]4)cc3)cc2)[nH]1)C(C)C [Compound S-68] | >100 fold |
| CCOc1ccccc1C(=O)N[C@H](c1nc(-c2ccc(-c3ccc(-c4c[nH]c([C@@H](NC(=O)c5ccccc5OCC)C(C)(C)C)n4)cc3)cc2)c[nH]1)C(C)(C)C [Compound P-29] | >100 fold |
| COc1ccc(CNC(C)(C)C(=O)N[C@H](c2nc(-c3ccc(-c4ccc(-c5c[nH]c([C@@H](NC(=O)C(C)(C)NCc6ccc(OC)cc6)C(C)(C)C)n5)cc4)cc3)c[nH]2)C(C)(C)C)cc1 [Compound S-267] | >100 fold |
| CC(C)(C(=O)N[C@H](c1nc(-c2ccc(-c3ccc(-c4c[nH]c([C@@H](NC(=O)C(C)(C)C(O)c5ccccc5)C(C)(C)C)n4)cc3)cc2)c[nH]1)C(C)(C)C)C(O)c1ccccc1 (single isomer, unassigned) [Compound N-127A] | >100 fold |
| CC(C)[C@H](NC(=O)C12CCC(C1)C(C)(C)C2O)c1nc(-c2ccc(-c3ccc(-c4c[nH]c([C@@H](NC(=O)C56CCC(C5)C(C)(C)C6O)C(C)C)n4)cc3)cc2)c[nH]1 (single isomer, unassigned) [Compound Y-113] | >100 fold |
| CC(C)[C@H](NC(=O)C1CCC(F)(F)CC1)c1ncc(-c2ccc(-c3ccc(-c4cnc([C@@H](NC(=O)C5CCC(F)(F)CC5)C(C)(C)C)[nH]4)cc3)cc2)[nH]1 [Compound Y-42] | >100 fold |
